{"source": "patent US20250250284A1", "about": "“MACROCYCLE COMPOUNDS USEFUL AS KRAS INHIBITORS” (Hoffmann-La Roche Inc., priority 2022, published 2025)", "key": {"[1]": {"system": "NCI-H358 cells", "assay": "Cell viability assay (Cell Counting Kit-8), KRAS G12C", "assay_type": "cell-based", "settings": "Homo sapiens, 72 hrs incubation, CCK-8", "protocol": "(§1) The purpose of this cellular assay was to determine the effects of test compounds on the proliferation of human cancer cell lines NCI-H358 (ATCC-CRL5807) cells, AGS (ATCC-CRL-1739) cells, SW620 (ATCC-CCL-227) over a 3-day treatment period by quantifying the amount of NADPH present at endpoint using Cell Counting Kit-8.\n(§2) Cells were seeded at 5,000 cells/well (NCI-H358), 2,000 cells/well (AGS) 2,000 cells/well (SW620) in 96-well assay plates (Corning-3699) and incubated overnight. On the day of the assay, diluted compounds were then added in a final concentration of 0.5% DMSO. After 72 hrs incubation, a tenth of the volume of cell counting kit 8 (Dnjindo-CK04) was added into each well. Read the signal (OD450 minus OD650) using EnVision after 2 hrs incubation. IC50 was determined by fitting a 4-parameter sigmoidal concentration response model."}, "[2]": {"system": "AGS cells", "assay": "Cell viability assay (Cell Counting Kit-8), KRAS G12D", "assay_type": "cell-based", "settings": "Homo sapiens, 72 hrs incubation, CCK-8", "protocol": "as §1, §2"}, "[3]": {"system": "SW620 cells", "assay": "Cell viability assay (Cell Counting Kit-8), KRAS G12V", "assay_type": "cell-based", "settings": "Homo sapiens, SW-620, 72 hrs incubation, CCK-8", "protocol": "as §1, §2"}, "[4]": {"target": "KRAS G12C-BRAF complex (Homo sapiens (Human), UniProt P01116+P62937, G12C)", "sequence (P01116-2 other isoform, or with tags, fused parts or gaps G12C)": "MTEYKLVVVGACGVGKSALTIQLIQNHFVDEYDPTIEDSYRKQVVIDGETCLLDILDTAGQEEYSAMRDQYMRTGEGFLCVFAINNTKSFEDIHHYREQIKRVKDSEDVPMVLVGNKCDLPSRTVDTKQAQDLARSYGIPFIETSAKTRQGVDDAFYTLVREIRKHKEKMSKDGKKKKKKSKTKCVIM", "sequence (P62937 whole entry)": "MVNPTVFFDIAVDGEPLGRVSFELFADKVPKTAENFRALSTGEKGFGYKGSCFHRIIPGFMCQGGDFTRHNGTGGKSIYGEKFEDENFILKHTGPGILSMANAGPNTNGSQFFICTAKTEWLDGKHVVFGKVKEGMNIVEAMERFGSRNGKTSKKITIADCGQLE", "assay": "KRAS-BRAF with CYPA (500 nM) interaction assay (TR-FRET), G12C", "assay_type": "binding", "settings": "GMPPNP loaded 6His-KRAS, GST-BRAF RBD, 3 hours", "protocol": "(§3) KRAS-BRAF with CYPA (500 nM) Interaction Assay\n(§4) In this example, TR-FRET was also used to measure the compound or compound-CYPA dependent disruption of the KRAS G12C-BRAF complex. This protocol was also used to measure disruption of KRAS G12D or KRAS G12V binding to BRAF by a compound of the invention, respectively. In assay buffer containing 25 mM HEPES PH=7.4 (4-(2-hydroxyethyl)-1-piperazineethanesulfonic acid, Thermo, 15630080), 0.002% Tween20, 0.1% BSA, 100 mM NaCl, 5 mM MgCl2, 10 μM GMPPNP (Guanosine 5′-[β,γ-imido]triphosphate trisodium salt hydrate, Sigma, G0635), tagless CYPA, GMPPNP loaded 6His-KRAS proteins, and GST-BRAF^RBD were mixed in a well of a 384-well assay plate at final concentrations of 50 nM, 6.25 nM and 1 nM, respectively. Compound was present in plate wells as a 16-point 3-fold dilution series starting at a final concentration of 10 μM and incubated for 3 hours. A mixture of MAb Anti-6His-XL665 (Cisbio, 61HISXLB) and Mab anti-GST-TB cryptate (Cisbio, 61GSTTLB) was then added at a final concentration of 6.67 nM and 0.21 nM, respectively, and the plate was incubated for an additional 1.5 hours. TR-FRET signal was read on a PHERstar FSX microplate reader (Ex320 nm, Em 665/615 nm). Compounds that facilitate disruption of the KRAS-BRAF complex were identified as those eliciting a decrease in the TR-FRET ratio relative to DMSO control wells."}, "[5]": {"target": "KRAS G12D binding to BRAF (Homo sapiens (Human), UniProt P01116+P62937, G12D)", "sequence (P01116-2 other isoform, or with tags, fused parts or gaps G12D)": "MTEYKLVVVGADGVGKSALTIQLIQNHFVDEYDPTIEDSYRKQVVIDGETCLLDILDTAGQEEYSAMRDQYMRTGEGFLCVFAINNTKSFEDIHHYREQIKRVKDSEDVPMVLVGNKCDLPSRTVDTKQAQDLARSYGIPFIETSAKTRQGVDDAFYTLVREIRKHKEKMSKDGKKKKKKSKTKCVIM", "sequence (P62937 whole entry)": "as the sequence (P62937 whole entry) above", "assay": "KRAS-BRAF with CYPA (500 nM) interaction assay (TR-FRET), G12D", "settings": "GMPPNP loaded 6His-KRAS, GST-BRAF RBD, 3 hours", "protocol": "as §3, §4"}, "[6]": {"target": "KRAS G12V binding to BRAF (Homo sapiens (Human), UniProt P01116+P62937, G12V)", "sequence (P01116-2 other isoform, or with tags, fused parts or gaps G12V)": "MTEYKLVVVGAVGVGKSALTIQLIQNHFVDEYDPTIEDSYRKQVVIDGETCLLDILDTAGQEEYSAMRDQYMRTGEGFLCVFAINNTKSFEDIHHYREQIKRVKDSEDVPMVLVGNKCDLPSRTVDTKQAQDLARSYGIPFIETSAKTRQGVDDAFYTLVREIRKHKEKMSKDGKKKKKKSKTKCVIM", "sequence (P62937 whole entry)": "as the sequence (P62937 whole entry) above", "assay": "KRAS-BRAF with CYPA (500 nM) interaction assay (TR-FRET), G12V", "settings": "GMPPNP loaded 6His-KRAS, GST-BRAF RBD, 3 hours", "protocol": "as §3, §4"}, "[7]": {"system": "phosphorylation of ERK, KRAS G12C in NCI-H358 cells", "assay": "pERK inhibition assay, KRAS G12C", "assay_type": "cell-based", "settings": "Homo sapiens, 4 hours of incubation", "protocol": "(§5) This assay is to measure the ability of test compounds in inhibiting the phosphorylation of ERK, the downstream signaling of KRAS G12C in NCI-H358 cells, KRAS G12D in AGS cells, and KRAS G12V in SW620. NCI-H358 (ATCC-CRL5807) cells, AGS (ATCC-CRL-1739) cells, SW620 (ATCC-CCL-227) cells were all grown and maintained using RPMI-1640 medium (Thermo Fisher Scientific) with 10% fetal bovine serum and 1% penicillin/streptomycin. On the day prior to compound addition, cells were plated in tissue culture-treated 96 well plates (Corning-3699) at a density of 30,000 cell/well, 20,000 cell/well, 30,000 cell/well for NCI-H358, AGS and SW620 respectively, and allowed for attachment overnight. Diluted compounds were then added in a final concentration of 0.5% DMSO. After 4 hours of incubation, the medium was removed, 100 μL of 4% formaldehyde was added, and the assay plates were incubated at room temperature for 20 minutes. The plates were then washed once with phosphate buffered saline (PBS), and permeabilized with 100 μL of chilled methanol for 10 minutes. Non-specific antibody binding to the plates was blocked using 50 μL 1×BSA blocking buffer (Thermo-37520, 10-fold dilution by Phosphate-Buffered Saline Tween (PBST) for at least 1 hour at room temperature.\n(§6) The amount of phosphor-ERK was determined using an antibody specific for phosphorylated form of ERK. Primary antibody (pERK, CST-4370, Cell Signaling Technology) was diluted 1:300 in blocking buffer, with 50 μL aliquoted to each well, and incubated overnight at 4° C. Cells was washed five times for 5 minutes with PBST. Secondary antibody (HRP-linked anti-rabbit IgG, CST-7074, Cell Signaling Technology) was diluted 1:1000 in blocking buffer, and 50 μL was added to each well and incubated 1-2 hrs at room temperature. Cells was washed 5 times for 5 minutes with PBST, 100 μL TMB ELISA substrate (abcam-ab171523) were added and gently shake for 20 minutes. 50 μL stop solution (abcam-ab171529) were added, and then read the signal (OD450) by EnVision.\n(§7) IC50 was determined by fitting a 4-parameter sigmoidal concentration response model."}, "[8]": {"system": "phosphorylation of ERK, KRAS G12D in AGS cells", "assay": "pERK inhibition assay, KRAS G12D", "assay_type": "cell-based", "settings": "Homo sapiens, 4 hours of incubation", "protocol": "as §5, §6, §7"}, "[9]": {"system": "phosphorylation of ERK, KRAS G12V in SW620", "assay": "pERK inhibition assay, KRAS G12V", "assay_type": "cell-based", "settings": "Homo sapiens, SW-620; SW620 cells, 4 hours of incubation", "protocol": "as §5, §6, §7"}}, "data": [{"smiles": "CO[C@@H](C)c1ncc(N2CCN(C)CC2)cc1C1=C2CC(C)(C)COC(=O)[C@@H]3CCCN(N3)C(=O)[C@@H](NC(=O)[C@H]3C[C@@H]3C)Cc3nc(cs3)-c3ccc(c2c3)C1", "note": "(single isomer, unassigned) [Example A122, reference compound]", "values": [{"measurement": "IC50", "setting": "[1]", "value": "< 0.001", "unit": "µM"}, {"measurement": "IC50", "setting": "[2]", "value": 0.001, "unit": "µM"}, {"measurement": "IC50", "setting": "[3]", "value": "< 0.001", "unit": "µM"}, {"measurement": "IC50", "setting": "[4]", "value": 0.013, "unit": "µM"}, {"measurement": "IC50", "setting": "[5]", "value": 0.124, "unit": "µM"}, {"measurement": "IC50", "setting": "[6]", "value": 0.025, "unit": "µM"}, {"measurement": "IC50", "setting": "[7]", "value": 0.002, "unit": "µM"}, {"measurement": "IC50", "setting": "[8]", "value": 0.001, "unit": "µM"}, {"measurement": "IC50", "setting": "[9]", "value": "< 0.001", "unit": "µM"}]}, {"smiles": "CO[C@@H](C)c1ncc(N2CCN(CC(F)(F)F)CC2)cc1-c1c2c3cc(c(F)cc3n1CC(F)(F)F)-c1csc(n1)C[C@H](NC(=O)[C@H]1C[C@@H]1C)C(=O)N1CCC[C@H](N1)C(=O)OCC(C)(C)C2", "note": "(atropisomer, axis not shown; (M)) [Example 9, (1S,2S)—N-[(7S,13S)-24-fluoro-(20M)-20-[2-[(1S)-1-methoxyethyl]-5-[4-(2,2,2-trifluoroethyl)piperazin-1-yl]-3-pyridyl]-17,17-dimethyl-8,14-dioxo-21-(2,2,2-trifluoroethyl)-15-oxa-4-thia-9,21,27,28-tetrazapentacyclo[17.5.2.1^2,5.1^9,13.0^22,26]octacosa-1(25),2,5(28),19,22(26),23-hexaen-7-yl]-2-methyl-cyclopropanecarboxamide]", "values": [{"measurement": "IC50", "setting": "[1]", "value": 0.224, "unit": "µM"}, {"measurement": "IC50", "setting": "[2]", "value": 0.704, "unit": "µM"}, {"measurement": "IC50", "setting": "[3]", "value": 0.04, "unit": "µM"}, {"measurement": "IC50", "setting": "[4]", "value": 0.09, "unit": "µM"}, {"measurement": "IC50", "setting": "[5]", "value": 0.66, "unit": "µM"}, {"measurement": "IC50", "setting": "[6]", "value": 0.171, "unit": "µM"}, {"measurement": "IC50", "setting": "[7]", "value": 0.047, "unit": "µM"}, {"measurement": "IC50", "setting": "[8]", "value": 0.161, "unit": "µM"}, {"measurement": "IC50", "setting": "[9]", "value": 0.022, "unit": "µM"}]}, {"smiles": "CO[C@@H](C)c1ncc(N2CCN(C)CC2)cc1-c1c2c3cc(c(F)cc3n1CC(F)(F)F)-c1csc(n1)C[C@H](NC(=O)[C@H]1C[C@@H]1C)C(=O)N1CCC[C@H](N1)C(=O)OCC(C)(C)C2", "note": "(atropisomer, axis not shown; (M)) [Example 4, (1S,2S)—N-[(7S,13S)-24-fluoro-(20M)-20-[2-[(1S)-1-methoxyethyl]-5-(4-methylpiperazin-1-yl)-3-pyridyl]-17,17-dimethyl-8,14-dioxo-21-(2,2,2-trifluoroethyl)-15-oxa-4-thia-9,21,27,28-tetrazapentacyclo[17.5.2.1^2,5.1^9,13.0^22,26]octacosa-1(25),2,5(28),19,22(26),23-hexaen-7-yl]-2-methyl-cyclopropanecarboxamide]", "values": [{"measurement": "IC50", "setting": "[1]", "value": 0.019, "unit": "µM"}, {"measurement": "IC50", "setting": "[2]", "value": 1.27, "unit": "µM"}, {"measurement": "IC50", "setting": "[3]", "value": 0.013, "unit": "µM"}, {"measurement": "IC50", "setting": "[4]", "value": 0.036, "unit": "µM"}, {"measurement": "IC50", "setting": "[5]", "value": 0.544, "unit": "µM"}, {"measurement": "IC50", "setting": "[6]", "value": 0.095, "unit": "µM"}, {"measurement": "IC50", "setting": "[7]", "value": 0.02, "unit": "µM"}, {"measurement": "IC50", "setting": "[8]", "value": 0.047, "unit": "µM"}, {"measurement": "IC50", "setting": "[9]", "value": 0.007, "unit": "µM"}]}]}
